Laboratory results: ChEMBL document CHEMBL4402554, “Discovery of a Bromodomain and Extraterminal Inhibitor with a Low Predicted Human Dose through Synergistic Use of Encoded Library Technology and Fragment Screening” (J Med Chem, 2020)
Values joined by “and” are separate entries in the source; they are usually repeats but may differ in a detail not shown here. Equal entries are not always repeated. Active and inactive are the calls of the source. The calls are words filed in the database; no cut-off is given here.

Columns and labels:
[1] = species on record: Homo sapiens; assay: Selectivity ratio of pIC50 for Alexa Fluor 647 labelled ligand from recombinant human N-terminal His6-tagged BRD4 BD1 (1 to 477 residues)/BD2 Y390A mutant to pIC50 for BAZ2A (unknown origin)
[2] = molecular target: T1, Bromodomain-containing protein 4 (Homo sapiens, UniProt O60885, Y390A); assay: Displacement of Alexa Fluor 647 labelled ligand from recombinant human N-terminal His6-tagged BRD4 BD1 (1 to 477 residues)/BD2 Y390A mutant incubated for 30 mins by TR-FRET assay
[3] = test system: Blood; assay: Inhibition of LPS-induced MCP1 production in human whole blood preincubated for 30 mins followed by LPS addition measured after 18 to 24 hrs; format: functional, tissue-based
[4] = Half life in dog at 0.5 mg/kg, iv; format: ADME, organism-based, Canis lupus familiaris; conditions: in vivo
[5] = Fraction unbound in dog plasma at 0.5 mg/kg, iv; format: ADME, organism-based, Canis lupus familiaris
[6] = Metabolic stability in dog liver microsomes; format: ADME, Canis lupus familiaris, Microsome
[7] = Fraction unbound in human plasma; format: ADME, cell-free
[8] = Solubility of compound in pH 6.5 FASSIF at 1 mg incubated for 4 hrs by HPLC-UV analysis; format: physicochemical
[9] = Clearance in dog at 0.5 mg/kg, iv; format: ADME, organism-based, Canis lupus familiaris; conditions: in vivo
[10] = Unbound clearance in rat at 1 mg/kg, iv; format: ADME, organism-based; conditions: in vivo
[11] = Half life in rat at 1 mg/kg, iv; format: ADME, organism-based; conditions: in vivo
[12] = Volume of distribution at steady state in rat at 1 mg/kg, iv; format: ADME, organism-based; conditions: in vivo, read-out: Vdss
[13] = test system: Blood; assay: Inhibition of LPS-induced IL6 production in human whole blood preincubated for 30 mins followed by LPS addition measured after 18 to 24 hrs; format: functional, tissue-based
[14] = Fraction unbound in rat plasma at 1 mg/kg, iv; format: ADME, organism-based
[15] = Stability in dog hepatocytes; format: ADME, cell-based, Canis lupus familiaris, Hepatocyte
[16] = Metabolic stability in human liver microsomes; format: ADME, Microsome
[17] = Oral bioavailability in dog at 1 mg/kg; format: ADME, organism-based, Canis lupus familiaris; conditions: in vivo
[18] = Clearance in rat at 1 mg/kg, iv; format: ADME, organism-based; conditions: in vivo
[19] = Volume of distribution at steady state in dog at 0.5 mg/kg, iv; format: ADME, organism-based, Canis lupus familiaris; conditions: in vivo; for Vd: read-out: Vdss
[20] = Metabolic stability in rat liver microsomes; format: ADME, Microsome
[21] = Unbound clearance in dog at 0.5 mg/kg, iv; format: ADME, organism-based, Canis lupus familiaris; conditions: in vivo
[22] = Stability in rat hepatocytes; format: ADME, cell-based, Hepatocyte
[23] = molecular target: Bromodomain adjacent to zinc finger domain protein 2A (Homo sapiens, UniProt Q9UIF9); assay: Inhibition of BAZ2A (unknown origin) by TR-FRET assay
Chain of Bromodomain adjacent to zinc finger domain protein 2A (Q9UIF9 whole entry, the tested form may be a part): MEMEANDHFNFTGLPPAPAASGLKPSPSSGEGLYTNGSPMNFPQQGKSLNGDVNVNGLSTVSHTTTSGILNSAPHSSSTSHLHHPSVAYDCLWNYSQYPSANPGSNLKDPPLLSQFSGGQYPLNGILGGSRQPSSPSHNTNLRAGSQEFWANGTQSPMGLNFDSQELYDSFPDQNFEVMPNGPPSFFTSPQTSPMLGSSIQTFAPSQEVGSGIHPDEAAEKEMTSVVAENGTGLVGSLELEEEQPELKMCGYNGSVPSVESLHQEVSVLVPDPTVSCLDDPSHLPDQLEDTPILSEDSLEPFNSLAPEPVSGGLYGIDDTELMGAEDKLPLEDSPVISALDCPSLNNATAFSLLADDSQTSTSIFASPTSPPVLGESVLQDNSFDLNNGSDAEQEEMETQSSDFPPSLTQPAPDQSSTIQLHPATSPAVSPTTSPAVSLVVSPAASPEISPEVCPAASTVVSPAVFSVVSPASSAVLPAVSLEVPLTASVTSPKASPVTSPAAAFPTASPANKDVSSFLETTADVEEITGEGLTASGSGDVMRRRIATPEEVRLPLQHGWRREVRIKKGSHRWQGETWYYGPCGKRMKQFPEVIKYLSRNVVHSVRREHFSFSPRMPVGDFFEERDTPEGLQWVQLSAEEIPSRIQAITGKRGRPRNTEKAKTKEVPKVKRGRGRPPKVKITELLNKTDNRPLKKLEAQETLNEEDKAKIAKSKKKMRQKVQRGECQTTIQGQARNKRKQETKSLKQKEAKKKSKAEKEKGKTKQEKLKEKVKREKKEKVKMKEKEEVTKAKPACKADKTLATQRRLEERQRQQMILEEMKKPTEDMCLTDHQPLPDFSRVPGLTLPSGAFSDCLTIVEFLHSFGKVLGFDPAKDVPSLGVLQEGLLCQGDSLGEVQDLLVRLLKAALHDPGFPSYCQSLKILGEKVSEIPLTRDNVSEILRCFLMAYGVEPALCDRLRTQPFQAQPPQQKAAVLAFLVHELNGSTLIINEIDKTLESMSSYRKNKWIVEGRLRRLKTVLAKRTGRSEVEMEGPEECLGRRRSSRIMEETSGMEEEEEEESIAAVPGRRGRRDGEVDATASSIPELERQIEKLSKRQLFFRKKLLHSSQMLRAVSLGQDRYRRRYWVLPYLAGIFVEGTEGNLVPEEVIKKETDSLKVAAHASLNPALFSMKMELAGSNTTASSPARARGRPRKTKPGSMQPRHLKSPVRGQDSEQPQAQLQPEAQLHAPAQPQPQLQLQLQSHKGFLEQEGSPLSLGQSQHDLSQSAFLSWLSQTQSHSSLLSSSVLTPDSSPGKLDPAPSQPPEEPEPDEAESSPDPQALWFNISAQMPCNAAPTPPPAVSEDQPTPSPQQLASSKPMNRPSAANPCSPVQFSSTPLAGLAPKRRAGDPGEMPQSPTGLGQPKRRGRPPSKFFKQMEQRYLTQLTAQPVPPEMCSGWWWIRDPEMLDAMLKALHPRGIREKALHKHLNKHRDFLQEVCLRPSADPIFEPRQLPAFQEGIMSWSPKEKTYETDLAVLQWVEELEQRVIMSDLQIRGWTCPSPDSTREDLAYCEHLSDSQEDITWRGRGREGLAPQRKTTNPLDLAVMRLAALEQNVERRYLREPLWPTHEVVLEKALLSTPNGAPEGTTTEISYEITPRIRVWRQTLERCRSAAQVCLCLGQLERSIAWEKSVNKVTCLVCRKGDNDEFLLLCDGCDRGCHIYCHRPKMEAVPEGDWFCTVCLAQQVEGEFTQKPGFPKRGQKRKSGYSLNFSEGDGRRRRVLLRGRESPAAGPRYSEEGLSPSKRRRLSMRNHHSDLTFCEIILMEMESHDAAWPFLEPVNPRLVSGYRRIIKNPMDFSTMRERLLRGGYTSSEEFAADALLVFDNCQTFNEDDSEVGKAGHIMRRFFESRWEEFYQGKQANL

[24] = Stability in human hepatocytes; format: ADME, cell-based, Hepatocyte
[25] = Lipophilicity, log D of the compound at pH 7.4 by chromatographic method; format: physicochemical; conditions: buffer
[26] = AUC (0 to infinity) in CD-1 mouse at 3 mg/kg, po; format: ADME, organism-based; set-up: dose 3 mg/kg, route oral, time infinity; conditions: in vivo
[27] = Oral bioavailability in rat at 30 mg/kg; format: ADME, organism-based; conditions: in vivo
[28] = AUC (0 to infinity) in dog at 1.5 mg/kg, po; format: ADME, organism-based, Canis lupus familiaris; set-up: dose 1.5 mg/kg, route oral, time infinity; conditions: in vivo
[29] = test system: Mus musculus; assay: Antiinflammatory activity in LPS-challenged CD-1 mouse assessed as reduction in cytokine production at 1 to 10 mg/kg, po administrated as single dose 30 mins prior to LPS challenge measured after 5 hrs by immunoassay; format: functional, organism-based
[30] = Metabolic stability in CD-1 mouse liver microsomes; format: ADME, Microsome
[31] = Stability in CD-1 mouse hepatocytes; format: ADME, cell-based, Hepatocyte
[32] = AUC (0 to infinity) in rat at 30 mg/kg, po; format: ADME, organism-based; set-up: dose 30 mg/kg, route oral, time infinity; conditions: in vivo
[33] = AUC (0 to infinity) in rat at 3 mg/kg, po; format: ADME, organism-based; set-up: dose 3 mg/kg, route oral, time infinity; conditions: in vivo
[34] = test system: Mus musculus; assay: Antiinflammatory activity in TNP-KLH- treated CD-1 mouse T cell-dependent immunization model assessed as IgG1 level at 3 mg/kg, po qd treated for 0.5 hrs followed by TNP-KLH treatment and measured after 14 days by ELISA analysis; format: functional
[35] = Oral bioavailability in rat at 3 mg/kg; conditions: in vivo
[36] = test system: Mus musculus; assay: Antiinflammatory activity in TNP-KLH- treated CD-1 mouse T cell-dependent immunization model assessed as IgG1 level at 0.3 mg/kg, po qd treated for 0.5 hrs followed by TNP-KLH treatment and measured after 14 days by ELISA analysis; format: functional
[37] = test system: Mus musculus; assay: Antiinflammatory activity in TNP-KLH- treated CD-1 mouse T cell-dependent immunization model assessed as IgG1 level at 3 mg/kg, po qod treated for 0.5 hrs followed by TNP-KLH treatment and measured after 14 days by ELISA analysis; format: functional
[38] = molecular target: T1, Bromodomain-containing protein 4; assay: Displacement of Alexa Fluor 647 labelled ligand from recombinant human N-terminal His6-tagged BRD4 BD1 (1 to 477 residues)/BD2 Y390A mutant incubated for 60 mins by fluorescence polarization assay

## Cc1cc(-c2nc3ccccc3n2C(C)C2CCOCC2)cn(C)c1=O (configuration not stated)
[1]
  Ratio pIC50: 1.4 and 0.9

## Cn1cc(-c2nc[nH]c2-c2ccc(F)cc2)ccc1=O
[2]
  IC50: 6310 nM

## Cc1cc(-c2nc3ccccc3n2CC2CCOCC2)cn(C)c1=O
[3]
  IC50: 251 nM
[4]
  half-life: 138 min
[5]
  fraction unbound: 0.47
[6]
  Stability: < 0.37 mL/min/g
[7]
  fraction unbound: 0.4
[8]
  solubility at 4 h: > 1000 µg/mL
[9]
  clearance: 8 mL/min/kg
[10]
  CL free: 149 mL/min/kg
[11]
  half-life: 12 min
[12]
  Vd: 1.4 L/kg
[13]
  IC50: 200 nM
[14]
  fraction unbound: 0.55
[15]
  Stability: < 1.3 mL/min/g
[16]
  Stability: 0.83 mL/min/g
[17]
  bioavailability: 97%
[18]
  clearance: 82 mL/min/kg
[19]
  Vd: 1.4 L/kg
[20]
  Stability: 3.2 mL/min/g
[21]
  CL free: 17 mL/min/kg
[22]
  Stability: 17 mL/min/g
[23]
  IC50: 0.316 µM
[24]
  Stability: < 0.87 mL/min/g

## Cn1cc(-c2nc3ccccc3n2CC2CCN(C(=O)CO)CC2)ccc1=O
[2]
  IC50: 7940 nM

## CC(=O)N[C@H]1CC[C@@H](Cn2c(-c3cc(C)c(O)c(C)c3)nc3ccccc32)CC1
[2]
  IC50: 501 nM

## Cc1cc(-c2nc3cc(N4CCOCC4)ccc3n2CC2CCOCC2)cn(C)c1=O
[3]
  IC50: 12.6 nM
[25]
  chromatographic logD: 2.3
[8]
  solubility at 4 h: > 1000 µg/mL
[2]
  IC50: 10 nM

## COCC(COC)n1c(-c2cc(C)c(=O)n(C)c2)nc2cc(N3CCOCC3)ccc21
[3]
  IC50: 25.1 nM
[4]
  t1/2: 5.3 h
[5]
  fraction unbound: 0.5
[26]
  AUC(0-inf): 3620 ng·h/mL
[27]
  bioavailability: 93%
[28]
  AUC(0-inf): 12500 ng·h/mL
[6]
  Stability: < 0.37 mL/min/g
[29]
  Activity: Active
[30]
  Stability: < 0.48 mL/min/g
[31]
  Stability: < 1 mL/min/g
[7]
  fraction unbound: 0.72
[32]
  AUC(0-inf): 27000 ng·h/mL
[10]
  CL free: 24 mL/min/kg
[11]
  half-life: 228 min
[12]
  Vd: 2.3 L/kg
[13]
  IC50: 20 nM
[14]
  fraction unbound: 0.69
[15]
  Stability: < 1.3 mL/min/g
[16]
  Stability: < 0.4 mL/min/g
[17]
  bioavailability: 101%
[18]
  clearance: 17 mL/min/kg
[19]
  Vdss: 0.9 L/kg
[33]
  AUC(0-inf): 2610 ng·h/mL
[20]
  Stability: < 0.46 mL/min/g
[21]
  CL free: 4 mL/min/kg
[34]
  Activity: 20%
[22]
  Stability: < 0.8 mL/min/g
[35]
  bioavailability: 94%
[23]
  IC50: 63.1 µM
[24]
  Stability: < 0.87 mL/min/g
[36]
  Activity: 65%
[37]
  Activity: 65%

## O=C(CO)N1CCC(Cn2c(-c3ccc(=O)[nH]c3)nc3ccccc32)CC1
[2]
  IC50: > 50100 nM

## Cc1cc(-c2nc3ccccc3n2CC2CCN(C(=O)CO)CC2)c[nH]c1=O
[2]
  IC50: 1580 nM

## Cc1cc(-c2nc3ccccc3n2CC2CC3(COC3)C2)cn(C)c1=O
[1]
  Ratio pIC50: 3.1
[16]
  Stability: < 0.4 mL/min/g
[2]
  IC50: 50.1 nM
[20]
  Stability: 0.99 mL/min/g
[23]
  IC50: 63.1 µM

## CNC(=O)c1ccc2c(c1)nc(-c1cc(C)c(O)c(C)c1)n2CC1CCN(C(C)=O)CC1
[25]
  chromatographic logD: 2
[38]
  IC50: 251 nM

## CNC(=O)c1ccc2c(c1)nc(-c1cc(C)c(O)c(C)c1)n2CC1CCN(C(=O)c2ccccc2)CC1
[25]
  chromatographic logD: 3.2
[38]
  IC50: 126 nM
[2]
  IC50: 200 nM

## CC(=O)N1CCC(n2c(-c3cc(C)c(O)c(C)c3)nc3ccccc32)CC1
[2]
  IC50: 1580 nM

## Cc1cc(-c2nc3ccccc3n2CC2CCCOC2)cn(C)c1=O (configuration not stated)
[2]
  IC50: 31.6 nM and 25.1 nM
[23]
  IC50: 25.1 µM and 79.4 µM

## Cc1cc(-c2nc3ccccc3n2CCC2CCOCC2)cn(C)c1=O
[1]
  Ratio pIC50: 2.9
[2]
  IC50: 50.1 nM
[23]
  IC50: 39.8 µM

## Cc1cc(-c2nc3ccccc3n2C[C@H]2CC[C@H](O)CC2)cn(C)c1=O
[1]
  Ratio pIC50: 2.8
[2]
  IC50: 79.4 nM
[23]
  IC50: 50.1 µM

## CC(=O)N[C@H]1CC[C@H](Cn2c(-c3cc(C)c(O)c(C)c3)nc3ccccc32)CC1
[2]
  IC50: 1580 nM

## COCC(C)n1c(-c2cc(C)c(=O)n(C)c2)nc2ccccc21 (racemic)
[1]
  Ratio pIC50: 2.1
[2]
  IC50: 316 nM
[23]
  IC50: 39.8 µM

## COCC(COC)n1c(-c2cc(C)c(=O)n(C)c2)nc2ccccc21
[4]
  half-life: 102 min
[5]
  fraction unbound: 0.57
[6]
  Stability: < 0.37 mL/min/g
[7]
  fraction unbound: 0.37
[9]
  clearance: 5 mL/min/kg
[1]
  Ratio pIC50: > 3.7
[10]
  CL free: 63 mL/min/kg
[11]
  half-life: 192 min
[12]
  Vd: 2.1 L/kg
[14]
  fraction unbound: 0.59
[15]
  Stability: < 1.3 mL/min/g
[16]
  Stability: < 0.4 mL/min/g
[17]
  bioavailability: 46%
[18]
  clearance: 37 mL/min/kg
[19]
  Vd: 0.8 L/kg
[2]
  IC50: 39.8 nM
[20]
  Stability: < 0.46 mL/min/g
[21]
  CL free: 9 mL/min/kg
[22]
  Stability: 1.1 mL/min/g
[35]
  bioavailability: 46%
[23]
  IC50: > 100 µM
[24]
  Stability: < 0.87 mL/min/g

## CC(=O)N1CCC(Cn2c(-c3cc(C)c(O)c(C)c3)nc3ccccc32)CC1
[2]
  IC50: 501 nM

## Cc1cc(-c2nc3cc(N(C)C)ccc3n2CC2CCOCC2)cn(C)c1=O
[25]
  chromatographic logD: 2.9

## CC(=O)N1CC(Cn2c(-c3cc(C)c(O)c(C)c3)nc3ccccc32)C1
[2]
  IC50: 1580 nM

## CC(=O)N1CCC(Cn2c(-c3cc(C)c(O)c(C)c3)nc3ccccc32)C1 (racemic)
[2]
  IC50: 2510 nM

## CCC(C1CCOCC1)n1c(-c2cc(C)c(=O)n(C)c2)nc2ccccc21 (configuration not stated)
[1]
  Ratio pIC50: > 2.1 and 1.6
[2]
  IC50: 794 nM and 158 nM

## CNC(=O)c1ccc2c(c1)nc(-c1cc(C)c(O)c(C)c1)n2CC1CCNCC1
[25]
  chromatographic logD: 0.8
[2]
  IC50: 2000 nM
